# Data reported in patent US20230329308A1, “COMPOSITIONS COMPRISING A MINERAL SALT FOR ORAL USE” (DIFASS INTERNATIONAL S.P.A., priority 2020, published 2023).
# “Also recorded” adds a separate entry of the source.
# What was measured:
# [1] = in words; cited from earlier work
# [2] = Evaluation of organoleptic characteristics of the granulate vs iron fumarate (Example II); type: in vivo, human; details: score 1 (intolerable) to 5 (highly tolerable); one score per participant, 4 subjects; amount equivalent to 14 mg elemental iron
# Protocol: A portion of the granulate described in Example I and a portion of commercially available iron fumarate, both equivalent to 14 mg of elemental iron (100% of Nutrient Reference Value—EU Reg. 1169/2011) were weighed separately using known procedures.
# The following trial protocol was used to evaluate the organoleptic characteristics of the two samples compared.
# Each of the compositions listed in Table II above was tested on a group of 4 subjects. The inclusion criteria for admission to the test were solely ethical: the subjects had to be over the age of majority, healthy, and not suffering from any taste and/or iron metabolism alterations correlated with disorders and/or illnesses.
# Each subject independently tasted first one and then the other sample of the example, maintaining a suitable time interval (at least 2 hours) between one tasting and the next, and rinsing their mouth, so that the evaluation of each administration was not influenced by the previous one.
# On each tasting, the following parameters were evaluated: metallic odour and flavour, gastrointestinal tolerability, aftertaste, and staining of teeth, tongue and/or palate. […]
# [3] = in words; cited from earlier work; remark: listed apart in the source
# [4] = Comparative iron release profile, simulated gastrointestinal conditions, ICP-OES; type: physicochemical; details: sample equivalent to 30 mg elemental iron, HCl 0.1N then pH 6.8, 37°C
# Protocol: The release profile and bioavailability of the composition according to the invention were analysed and measured by comparison with iron sulphate (the preferred form for pharmacological treatment) using an in vitro system, under conditions simulating the gastrointestinal environment.
# The tests were conducted according to methods published in the international scientific literature and internally validated.
# For the measurement of the comparative release profile, amounts of the two test samples were first weighed, both equivalent to 30 mg of elemental iron. The samples were initially placed in contact with a solution of HCl (0.1N) and incubated at a temperature of 37±0.5° C. A solution of Na2HPO4 was then added to the samples to buffer the pH to a value of 6.8. Said conditions were maintained throughout the remainder of the experiment. To evaluate the release profile of the iron, the two samples were centrifuged at 10,000 rpm at pre-set time intervals such as 1, 2, 4, 6 and 24 h. At the end of centrifugation the samples were taken up and analysed to evaluate the iron release profiles. The iron determination analyses were conducted with the ICP-OES THERMO FISHER ICAP 6300.
# [5] = In vitro bioavailability study, dialysis membrane method with simulated buccal, gastric and intestinal digestion; type: in vitro ADME
# Protocol: The in vitro bioavailability study was conducted by the dialysis membrane method. Said method, by its nature, is based on the physicochemical characteristics of the environments wherein the desired substance passes from one compartment to the other, and takes no account of any active mechanisms or biological interaction. The method involves three successive simulated digestion stages: buccal digestion in the presence of amylase, gastric digestion in the presence of pepsin, and finally, intestinal digestion in the presence of pancreatin.
# In order to simulate buccal digestion, suitable amounts of the test samples were placed in contact with 10 mg of amylase and 1.5 mL of PBS at pH 6.9 (10^-3 M). The resulting mixtures were inserted into dialysis membranes (Spectrum Laboratories Inc., USA, MWCO: 12-14,000 Daltons), tightly closed at each end and immersed in vials containing PBS at pH 6.9. The samples were then incubated at a temperature of 37±0.5° C. for 5 minutes.
# After incubation, HCl (0.85N), pepsin and a solution of NaN3 (0.04% w/w) were added to the open membranes. The membranes were closed, placed in vials containing HCl (0.85N), and incubated at 37±0.5° C. for 2 h.
# After said 2 h period, a solution of NaHCO3 (0.8 M) and pancreatin was added. The closed membranes were placed in vials containing PBS at pH 7.0, and incubated at a temperature of 37±0.5° C. for a further 4 h.
# To evaluate the in vitro bioavailability of the iron, the solution contained in the vials was taken up after each digestion step, and the samples were analysed with an ICP-OES THERMO FISHER ICAP 6300.
# Bioavailability is defined as the percentage of iron recovered in the bioaccessible fraction after in vitro digestion, in relation to the original undigested sample, and calculated with the equation: (bioaccessible fraction/total content)×100%.
Compound,Iron release compared with iron sulphate [1],Gastrointestinal tolerability [2],Water solubility compared with iron sulphate [3],Iron released ([4]; 1 h),Iron released ([4]; 2 h),Iron released ([4]; 4 h),"Bioaccessible fraction, buccal digestion ([5]; amylase, PBS pH 6.9, 37°C, 5 minutes)","Bioaccessible fraction, intestinal digestion ([5]; pancreatin, NaHCO3, PBS pH 7.0, 37°C, 4 h)","Bioaccessible fraction, gastric digestion ([5]; pepsin, HCl 0.85N, 37°C, 2 h)"
"O=C([O-])/C=C/C(=O)[O-].[Fe+2] [Sample B, Iron fumarate]",generically lower iron release than iron sulphate,Gastrointestinal tolerability: 5; also recorded: Gastrointestinal tolerability: 3,far less water-soluble than iron sulphate,,,,,,
O=S(=O)([O-])[O-].[Fe+2] [Ferrous sulphate],,,,84.16 ± 1.07,85.22 ± 0.98,100.03 ± 0.20,8.61 ± 0.73,7.16 ± 0.41,65.81 ± 1.39
